Each structure is given as a SMILES string.

We go through 15 molecules from patent US8618303B2, “Pyrrolidine derivatives” (Hoffmann-La Roche Inc., priority 2011, dated 2013).

Sequence of human NK3 receptor (P29371 whole entry): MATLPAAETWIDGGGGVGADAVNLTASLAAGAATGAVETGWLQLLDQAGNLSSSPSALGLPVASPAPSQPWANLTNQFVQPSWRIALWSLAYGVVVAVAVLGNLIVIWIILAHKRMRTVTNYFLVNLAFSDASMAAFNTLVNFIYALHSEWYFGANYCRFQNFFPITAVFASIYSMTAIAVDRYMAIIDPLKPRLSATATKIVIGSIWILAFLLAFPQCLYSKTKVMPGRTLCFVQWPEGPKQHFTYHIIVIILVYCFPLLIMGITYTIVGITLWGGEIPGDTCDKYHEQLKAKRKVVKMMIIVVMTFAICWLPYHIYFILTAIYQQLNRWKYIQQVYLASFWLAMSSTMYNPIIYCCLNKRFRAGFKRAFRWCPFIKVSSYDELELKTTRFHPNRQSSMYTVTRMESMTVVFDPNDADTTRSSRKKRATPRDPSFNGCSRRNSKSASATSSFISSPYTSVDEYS

The first assay has as its target human NK3 receptor (Homo sapiens (Human), UniProt P29371). Briefly: [3H]SR142801 competition binding assay.
Conditions: not given
As for the experimental part: hNK3 receptor binding experiment were performed using [^3H]SR142801 (Catalog No. TRK1035, specific activity: 74.0 Ci/mmol, Amersham, GE Healthcare UK limited, Buckinghamshire, UK) and membrane isolated from HEK293 cells transiently expressing recombinant human NK3 receptor. After thawing, the membrane homogenates were centrifuged at 48,000×g for 10 min at 4° C., the pellets were resuspended in the 50 mM Tris-HCl, 4 mM MnCl2, 1 μM phosphoramidon, 0.1% BSA binding buffer at pH 7.4 to a final assay concentration of 5 μg protein/well. […] At the end of the incubation, membranes were filtered onto unitfilter (96-well white microplate with bonded GF/C filter preincubated 1 h in 0.3% PEI+0.3% BSA, Packard BioScience, Meriden, Conn.) with a Filtermate 196 harvester (Packard BioScience) and washed 4 times with ice-cold 50 mM Tris-HCl, pH 7.4 buffer. Nonspecific binding was measured in the presence of 10μM SB222200 for both radioligands. The radioactivity on the filter was counted (5 min) on a Packard Top-count microplate scintillation counter with quenching correction after addition of 45 μl of microscint 40 (Canberra Packard S.A., Ziirich, Switzerland) and shaking for 1 h. Inhibition curves were fitted according to the Hill equation: y=100/(1+(x/IC50), where nH=slope factor using Excel-fit 4 software (Microsoft). IC50 values were derived from the inhibition curve and the affinity constant (Ki) values were calculated using the Cheng-Prussoff equation Ki =IC50/(1+[L]/KD) where [L] is the concentration of radioligand and KD is its dissociation constant at the receptor, derived from the saturation isotherm. All experiments were performed in duplicate and the mean±standard error (SEM) of the individual Ki values was calculated.
For `CN(C(=O)Oc1ccc(F)cc1)[C@@H]1CN(C(=O)C2CCN(c3ccc(C#N)cc3)CC2)C[C@@]1(C)c1ccc(Cl)cc1` (racemic) [Example 22, rac-{(3S,4R)-4-(4-Chloro-phenyl)-1-[1-(4-cyano-phenyl)-piperidine-4-carbonyl]-4-methyl-pyrrolidin-3-yl}-methyl-carbamic acid 4-fluoro-phenyl ester], the affinity, expressed as Ki, was 0.0105 µM.
Regarding `CN(C(=O)Oc1ccc(F)cc1)[C@@H]1CN(C(=O)C2CCN(c3ccc(F)cn3)CC2)C[C@@]1(C)c1ccc(Cl)cc1` (racemic) [Example 23, rac-[(3S,4R)-4-(4-Chloro-phenyl)-1-(5′-fluoro-3,4,5,6-tetrahydro-2H-[1,2′]bipyridinyl-4-carbonyl)-4-methyl-pyrrolidin-3-yl]-methyl-carbamic acid 4-fluoro-phenyl ester], the Ki (in general, a measure of affinity in units of concentration, obtained from inhibition or displacement) is 0.0435 µM.
The same measure, in the same setting: next, `CC(=O)c1ccc(N2CCC(C(=O)N3C[C@@H](N(C)C(=O)Oc4ccc(F)cc4)[C@](C)(c4ccc(Cl)cc4)C3)CC2)nc1` (racemic) [Example 31, rac-[(3S,4R)-1-(5′-Acetyl-3,4,5,6-tetrahydro-2H-[1,2′]bipyridinyl-4-carbonyl)-4-(4-chloro-phenyl)-4-methyl-pyrrolidin-3-yl]-methyl-carbamic acid 4-fluoro-phenyl ester]: 0.0081 µM; `COc1ccc(N2CCC(C(=O)N3C[C@@H](N(C)C(=O)Oc4ccc(F)cc4)[C@](C)(c4ccc(Cl)cc4)C3)CC2)nn1` (racemic) [Example 35, rac-{(3S,4R)-4-(4-Chloro-phenyl)-1-[1-(6-methoxy-pyridazin-3-yl)-piperidine-4-carbonyl]-4-methyl-pyrrolidin-3-yl}-methyl-carbamic acid 4-fluoro-phenyl ester]: 0.0213 µM; `CN(C(=O)Oc1ccc(F)cc1)[C@@H]1CN(C(=O)C2CCN(C3CCCCC3)CC2)C[C@@]1(C)c1ccc(Cl)cc1` [Example 25, [(3S,4R)-4-(4-Chloro-phenyl)-1-(1-cyclohexyl-piperidine-4-carbonyl)-4-methyl-pyrrolidin-3-yl]-methyl-carbamic acid 4-fluoro-phenyl ester]: 0.0915 µM.

Still in this assay, the particulars now being: membranes from HEK293 cells transiently expressing recombinant human NK3 receptor; [3H]SR142801; Ki from IC50 by Cheng-Prussoff; read-out: Ki (uM) hNK3.
`CC(C)C(=O)N1CCC(C(=O)N2C[C@@H](N(C)C(=O)Oc3ccc(F)cc3)[C@](C)(c3ccc(Cl)cc3)C2)CC1` (racemic) [Example 24, rac-[(3S,4R)-4-(4-Chloro-phenyl)-1-(1-isobutyryl-piperidine-4-carbonyl)-4-methyl-pyrrolidin-3-yl]-methyl-carbamic acid 4-fluoro-phenyl ester]: the Ki stood at 0.0392 µM.
With `CN(C(=O)Oc1ccc(F)cc1)[C@@H]1CN(C(=O)c2ccc(C#N)cc2)C[C@@]1(C)c1ccc(Cl)cc1` (racemic) [Example 26, rac-[(3S,4R)-4-(4-Chloro-phenyl)-1-(4-cyano-benzoyl)-4-methyl-pyrrolidin-3-yl]-methyl-carbamic acid 4-fluoro-phenyl ester], the Ki came to 0.629 µM.
On the same count and under the same terms, next, `CC(=O)N1CCC(C(=O)N2C[C@@H](N(C)C(=O)Oc3ccc(F)cc3)[C@](C)(c3ccc(Cl)cc3)C2)CC1` (racemic) [Example 27, rac-[(3S,4R)-1-(1-Acetyl-piperidine-4-carbonyl)-4-(4-chloro-phenyl)-4-methyl-pyrrolidin-3-yl]-methyl-carbamic acid 4-fluoro-phenyl ester]: 0.051 µM.
With `CN(C(=O)Oc1ccc(F)cc1)[C@@H]1CN(C(=O)C2CCOCC2)C[C@@]1(C)c1ccc(Cl)cc1` (racemic) [Example 28, rac-[(3S,4R)-4-(4-Chloro-phenyl)-4-methyl-1-(tetrahydro-pyran-4-carbonyl)-pyrrolidin-3-yl]-methyl-carbamic acid 4-fluoro-phenyl ester], the Ki was 0.348 µM.
Same read-out and setting: the same measure for `Cc1ccc(N2CCC(C(=O)N3C[C@@H](N(C)C(=O)Oc4ccc(F)cc4)[C@](C)(c4ccc(Cl)cc4)C3)CC2)nc1` (racemic) [Example 29, rac-[(3S,4R)-4-(4-Chloro-phenyl)-4-methyl-1-(5′-methyl-3,4,5,6-tetrahydro-2H-[1,2′]bipyridinyl-4-carbonyl)-pyrrolidin-3-yl]-methyl-carbamic acid 4-fluoro-phenyl ester]: 0.0245 µM; for `CN(C(=O)Oc1ccc(F)cc1)[C@@H]1CN(C(=O)C2CCN(c3ccc(C#N)cn3)CC2)C[C@@]1(C)c1ccc(Cl)cc1` (racemic) [Example 30, rac-[(3S,4R)-4-(4-Chloro-phenyl)-1-(5′-cyano-3,4,5,6-tetrahydro-2H-[1,2′]bipyridinyl-4-carbonyl)-4-methyl-pyrrolidin-3-yl]-methyl-carbamic acid 4-fluoro-phenyl ester]: 0.0053 µM; for `CN(C(=O)Oc1ccc(F)cc1)[C@@H]1CN(C(=O)C2CCN(c3ccc(Cl)cn3)CC2)C[C@@]1(C)c1ccc(Cl)cc1` (racemic) [Example 32, rac-[(3S,4R)-4-(4-Chloro-phenyl)-1-(5′-chloro-3,4,5,6-tetrahydro-2H-[1,2′]bipyridinyl-4-carbonyl)-4-methyl-pyrrolidin-3-yl]-methyl-carbamic acid 4-fluoro-phenyl ester]: 0.0099 µM.
Same read-out and setting: next, `CN(C(=O)Oc1ccc(F)cc1)[C@@H]1CN(C(=O)C2CCN(c3ccc(C(F)(F)F)cn3)CC2)C[C@@]1(C)c1ccc(Cl)cc1` (racemic) [Example 33, rac-[(3S,4R)-4-(4-Chloro-phenyl)-4-methyl-1-(5′-trifluoromethyl-3,4,5,6-tetrahydro-2H-[1,2′]bipyridinyl-4-carbonyl)-pyrrolidin-3-yl]-methyl-carbamic acid 4-fluoro-phenyl ester]: 0.02 µM.
In the case of `CN(C(=O)Oc1ccc(F)cc1)[C@@H]1CN(C(=O)c2ccc(N3CCCCC3=O)cc2)C[C@@]1(C)c1ccc(Cl)cc1` (racemic) [Example 36, rac-{(3S,4R)-4-(4-Chloro-phenyl)-4-methyl-1-[4-(2-oxo-piperidin-1-yl)-benzoyl]-pyrrolidin-3-yl}-methyl-carbamic acid 4-fluoro-phenyl ester], the Ki stood at 0.997 µM.

Test system in a further assay: not given
Assay: not given
The following applies: phase II trial; cited from earlier work.
For `CC(=O)N(C)C1(c2ccccc2)CCN(CCC[C@]2(c3ccc(Cl)c(Cl)c3)CCCN(C(=O)c3ccccc3)C2)CC1` [SR 142,801, Osanetant], the “activity on negative symptoms of schizophrenia” value is “inactive in the treatment of negative symptoms” and the “activity on positive symptoms of schizophrenia” value was “active on positive symptoms of schizophrenia”.
